Assay results from PMC5421785, “Citrullination only infrequently impacts peptide binding to HLA class II MHC” (PLoS ONE, 2017).
Read-outs that look alike come from different tables or passages of the source. Square brackets hold non-standard residues; d marks the D form. Peptide text beside a SMILES is read from it. Cit = NC(=O)NCCC[C@H](N)C(=O)O

Assays:
[1] = biological target: T1, HLA-DRB1*01:01 (Homo sapiens, UniProt P01903+P01911, A100R/D57E/F55L/F60I/F76Y/I96L/L162R/M171V/P40L/Q125E/R42F/V115G/Y59C); test: HLA class II peptide binding, inhibition of radiolabeled peptide binding to purified MHC; details: for DRB1*01:01 binding capacity, WT/cit ratio: ratio of WT IC50 to Cit IC50
T1 construct: EBV transformed homozygous cell lines were used as sources of MHC molecules; endogenous in cells; host or cells: EBV transformed homozygous cell lines

[2] = biological target: T2, HLA-DRB1*04:01 (Homo sapiens, UniProt P01903+P01911, A100K/A169T/F76Y/I96L/K127E/L162R/M171V/N62H/P40V/Q125Y/R42H/S133A/S149N/S66Y/V115G/V209L/W38E); test: as above; details: for DRB1*04:01 binding capacity, WT/cit ratio: ratio of WT IC50 to Cit IC50
T2 construct: EBV transformed homozygous cell lines were used as sources of MHC molecules; endogenous in cells; host or cells: EBV transformed homozygous cell lines

[3] = citrullinated 15-mer peptide (X = citrulline), purified HLA-DRB1*01:01, read-out: DRB1*01:01 binding capacity, Cit peptide (IC50 nM)
[4] = citrullinated 15-mer peptide (X = citrulline), purified HLA-DRB1*04:01, read-out: DRB1*04:01 binding capacity, Cit peptide (IC50 nM)
[5] = citrullinated 15-mer (X), purified MHC, inhibition of radiolabeled peptide binding, dash = IC50 >40,000 nM, read-out: DRB1*01:01 binding capacity, Cit peptide (IC50 nM)
[6] = citrullinated 15-mer (X), purified MHC, inhibition of radiolabeled peptide binding, dash = IC50 >40,000 nM, read-out: DRB1*04:01 binding capacity, Cit peptide (IC50 nM)
[7] = >1 = citrullination increases binding

Row | SMILES | IC50 [1, 3] [nM] | IC50 [2, 4] [nM] | IC50 [1, 5] [nM] | IC50 [2, 6] [nM] | also measured
1 | CC(C)[C@H](NC(=O)CNC(=O)[C@H](C)NC(=O)[C@H](C)N)C(=O)N[C@@H](CCCCN)C(=O)NCC(=O)N[C@@H](CC(=O)O)C(=O)N[C@@H](CCCNC(N)=O)C(=O)NCC(=O)N[C@@H](CCC(=O)O)C(=O)N[C@H](C(=O)NCC(=O)N[C@@H](C)C(=O)N[C@H](C(=O)NCC(=O)O)C(C)C)[C@@H](C)O [AAGVKGDXGETGAVG] (H-AAGVKGD[Cit]GETGAVG-OH) | 2010 | > 40000 | – | – | –
2 | CC(C)C[C@H](NC(=O)[C@H](C)NC(=O)[C@H](CC(=O)O)NC(=O)[C@H](CC(N)=O)NC(=O)[C@H](CC(N)=O)NC(=O)[C@H](CCCNC(=N)N)NC(=O)[C@H](CC(N)=O)NC(=O)[C@H](C)NC(=O)[C@H](C)N)C(=O)N[C@@H](CCCNC(N)=O)C(=O)N[C@@H](CCC(N)=O)C(=O)N[C@@H](C)C(=O)N[C@@H](CCCCN)C(=O)N[C@@H](CCC(N)=O)C(=O)N[C@@H](CCC(=O)O)C(=O)O [AANRNNDALXQAKQE] (H-AANRNNDAL[Cit]QAKQE-OH; N-terminus and C-terminus assumed) | – | – | > 40000 | > 40000 | DRB1*01:01 binding capacity, WT/cit ratio [1]: 1.0; DRB1*04:01 binding capacity, WT/cit ratio [2]: 1.0
3 | CC(C)C[C@H](NC(=O)[C@H](C)NC(=O)[C@H](CC(=O)O)NC(=O)[C@H](CC(N)=O)NC(=O)[C@H](CC(N)=O)NC(=O)[C@H](CCCNC(N)=O)NC(=O)[C@H](CC(N)=O)NC(=O)[C@H](C)NC(=O)[C@H](C)NC(=O)[C@H](CCC(=O)O)NC(=O)[C@H](CO)NC(=O)[C@H](CC(C)C)NC(=O)[C@H](CC(=O)O)NC(=O)[C@H](C)N)C(=O)N[C@@H](CCCNC(=N)N)C(=O)O [ADLSEAANXNNDALR] (H-ADLSEAAN[Cit]NNDALR-OH) | – | – | 7340 | 22200 | –
4 | CC(C)C[C@H](NC(=O)CNC(=O)[C@H](CCCNC(=N)N)NC(=O)[C@H](CCC(=O)O)NC(=O)CNC(=O)[C@@H]1CCCN1C(=O)[C@H](CCC(=O)O)NC(=O)CNC(=O)[C@H](C)N)C(=O)N[C@@H](CCCCN)C(=O)NCC(=O)N[C@@H](Cc1c[nH]cn1)C(=O)N[C@@H](CCCNC(N)=O)C(=O)NCC(=O)N[C@@H](Cc1ccccc1)C(=O)O [AGEPGERGLKGHXGF] (H-AGEPGERGLKGH[Cit]GF-OH) | 594 | > 40000 | – | – | –
5 | CC[C@H](C)[C@H](NC(=O)[C@H](C)N)C(=O)N[C@@H](CC(N)=O)C(=O)N[C@H](C(=O)N[C@@H](CCC(=O)O)C(=O)N[C@@H](Cc1ccccc1)C(=O)N[C@@H](CCCCN)C(=O)N[C@@H](CC(N)=O)C(=O)N[C@H](C(=O)N[C@@H](CCCNC(N)=O)C(=O)N[C@H](C(=O)N[C@@H](CC(N)=O)C(=O)N[C@@H](CCC(=O)O)C(=O)N[C@@H](CCCCN)C(=O)N[C@H](C(=O)O)C(C)C)[C@@H](C)O)[C@@H](C)O)[C@@H](C)O [AINTEFKNTXTNEKV] (H-AINTEFKNT[Cit]TNEKV-OH) | – | – | 2370 | 931 | –
6 | CSCC[C@H](NC(=O)[C@H](CCC(N)=O)NC(=O)[C@@H](NC(=O)[C@H](CC(N)=O)NC(=O)[C@H](C)N)C(C)C)C(=O)N[C@H](C(=O)N[C@@H](Cc1ccccc1)C(=O)N[C@@H](CC(C)C)C(=O)N[C@@H](CCCNC(N)=O)C(=O)N[C@@H](CC(C)C)C(=O)N[C@@H](CC(C)C)C(=O)N[C@@H](CO)C(=O)N[C@H](C(=O)N[C@@H](CCC(=O)O)C(=O)NCC(=O)O)[C@@H](C)O)[C@@H](C)O [ANVQMTFLXLLSTEG] (H-ANVQMTFL[Cit]LLSTEG-OH) | – | – | – | – | IC50 ([1]; citrullinated peptide as listed (X at Cit position), read-out: DRB1*01:01 binding capacity Cit peptide (IC50 nM)): 65 nM; IC50 ([2]; citrullinated peptide as listed (X at Cit position), read-out: DRB1*04:01 binding capacity Cit peptide (IC50 nM)): 1060 nM
7 | CC(C)C[C@H](NC(=O)[C@H](CCCNC(=N)N)NC(=O)[C@H](C)N)C(=O)N[C@@H](CC(=O)O)C(=O)N[C@@H](CC(C)C)C(=O)N[C@@H](CCC(=O)O)C(=O)N[C@@H](CCCNC(N)=O)C(=O)N[C@@H](CCCCN)C(=O)N[C@H](C(=O)N[C@@H](CCC(=O)O)C(=O)N[C@@H](CO)C(=O)N[C@@H](CC(C)C)C(=O)N[C@@H](CCC(N)=O)C(=O)N[C@@H](CCC(=O)O)C(=O)N[C@@H](CCC(=O)O)C(=O)O)C(C)C [ARLDLEXKVESLQEE] (H-ARLDLE[Cit]KVESLQEE-OH) | – | – | 1340 | 12000 | –
8 | CC(C)C[C@H](NC(=O)[C@H](CCCNC(N)=O)NC(=O)[C@H](C)N)C(=O)N[C@@H](CC(=O)O)C(=O)N[C@@H](CC(C)C)C(=O)N[C@@H](CCC(=O)O)C(=O)N[C@@H](CCCNC(=N)N)C(=O)N[C@@H](CCCCN)C(=O)N[C@H](C(=O)N[C@@H](CCC(=O)O)C(=O)N[C@@H](CO)C(=O)N[C@@H](CC(C)C)C(=O)N[C@@H](CCC(N)=O)C(=O)N[C@@H](CCC(=O)O)C(=O)N[C@@H](CCC(=O)O)C(=O)O)C(C)C [AXLDLERKVESLQEE] (H-A[Cit]LDLERKVESLQEE-OH) | – | – | 5290 | 9150 | –

Second part, led by results:

Row | IC50 [1, 3] [nM] | IC50 [2, 4] [nM] | IC50 [1, 5] [nM] | IC50 [2, 6] [nM] | SMILES | also measured
9 | – | – | > 40000 | > 40000 | CC(C)C[C@H](NC(=O)[C@H](C)NC(=O)[C@H](CC(=O)O)NC(=O)[C@H](CC(N)=O)NC(=O)[C@H](CC(N)=O)NC(=O)[C@H](CCCNC(N)=O)NC(=O)[C@H](CC(N)=O)NC(=O)[C@H](C)NC(=O)[C@H](C)N)C(=O)N[C@@H](CCCNC(=N)N)C(=O)N[C@@H](CCC(N)=O)C(=O)N[C@@H](C)C(=O)N[C@@H](CCCCN)C(=O)N[C@@H](CCC(N)=O)C(=O)N[C@@H](CCC(=O)O)C(=O)O [AANXNNDALRQAKQE] (H-AAN[Cit]NNDALRQAKQE-OH; N-terminus and C-terminus assumed) | DRB1*01:01 binding capacity, WT/cit ratio [1]: 1.0; DRB1*04:01 binding capacity, WT/cit ratio [2]: 1.0
10 | – | – | 6180 | 23300 | CC(C)C[C@H](NC(=O)[C@H](C)NC(=O)[C@H](CC(=O)O)NC(=O)[C@H](CC(N)=O)NC(=O)[C@H](CC(N)=O)NC(=O)[C@H](CCCNC(=N)N)NC(=O)[C@H](CC(N)=O)NC(=O)[C@H](C)NC(=O)[C@H](C)NC(=O)[C@H](CCC(=O)O)NC(=O)[C@H](CO)NC(=O)[C@H](CC(C)C)NC(=O)[C@H](CC(=O)O)NC(=O)[C@H](C)N)C(=O)N[C@@H](CCCNC(N)=O)C(=O)O [ADLSEAANRNNDALX] (H-ADLSEAANRNNDAL[Cit]-OH) | –
11 | 783 | > 40000 | – | – | CC(C)C[C@H](NC(=O)CNC(=O)[C@H](CCCNC(N)=O)NC(=O)[C@H](CCC(=O)O)NC(=O)CNC(=O)[C@@H]1CCCN1C(=O)[C@H](CCC(=O)O)NC(=O)CNC(=O)[C@H](C)N)C(=O)N[C@@H](CCCCN)C(=O)NCC(=O)N[C@@H](Cc1c[nH]cn1)C(=O)N[C@@H](CCCNC(=N)N)C(=O)NCC(=O)N[C@@H](Cc1ccccc1)C(=O)O [AGEPGEXGLKGHRGF] (H-AGEPGE[Cit]GLKGHRGF-OH) | –
12 | 1050 | 6720 | – | – | CC[C@H](C)[C@H](NC(=O)[C@H](CCC(=O)O)NC(=O)[C@H](CC(=O)O)NC(=O)[C@H](CCC(N)=O)NC(=O)[C@H](CC(C)C)NC(=O)[C@H](CCCNC(N)=O)NC(=O)CNC(=O)[C@@H](NC(=O)[C@@H](NC(=O)[C@H](CC(=O)O)NC(=O)[C@H](CCC(N)=O)NC(=O)[C@H](Cc1ccc(O)cc1)NC(=O)[C@H](CC(N)=O)NC(=O)[C@H](C)N)[C@@H](C)O)[C@@H](C)CC)C(=O)N[C@@H](CCC(N)=O)C(=O)O [ANYQDTIGXLQDEIQ] (H-ANYQDTIG[Cit]LQDEIQ-OH) | –
13 | – | – | 12900 | 1630 | CC(C)[C@H](NC(=O)[C@H](Cc1ccc(O)cc1)NC(=O)[C@H](CO)NC(=O)[C@H](CCCNC(N)=O)NC(=O)[C@H](CO)NC(=O)[C@H](CO)NC(=O)[C@H](CO)NC(=O)[C@@H]1CCCN1C(=O)[C@H](CCCNC(=N)N)NC(=O)[C@H](CO)NC(=O)[C@H](C)N)C(=O)N[C@H](C(=O)N[C@H](C(=O)N[C@@H](CO)C(=O)N[C@H](C(=O)O)[C@@H](C)O)[C@@H](C)O)[C@@H](C)O [ASRPSSSXSYVTTST] (H-ASRPSSS[Cit]SYVTTST-OH) | –
14 | – | – | 5560 | 757 | CC(C)[C@H](NC(=O)[C@H](Cc1ccc(O)cc1)NC(=O)[C@H](CO)NC(=O)[C@H](CCCNC(=N)N)NC(=O)[C@H](CO)NC(=O)[C@H](CO)NC(=O)[C@H](CO)NC(=O)[C@@H]1CCCN1C(=O)[C@H](CCCNC(N)=O)NC(=O)[C@H](CO)NC(=O)[C@H](C)N)C(=O)N[C@H](C(=O)N[C@H](C(=O)N[C@@H](CO)C(=O)N[C@H](C(=O)O)[C@@H](C)O)[C@@H](C)O)[C@@H](C)O [ASXPSSSRSYVTTST] (H-AS[Cit]PSSSRSYVTTST-OH) | –
15 | > 40000 | > 40000 | – | – | C[C@H](N)C(=O)N[C@@H](CCCNC(N)=O)C(=O)NCC(=O)N[C@@H](C)C(=O)N[C@@H](CCC(N)=O)C(=O)NCC(=O)N1CCC[C@H]1C(=O)N1CCC[C@H]1C(=O)NCC(=O)N[C@@H](C)C(=O)N[C@H](C(=O)NCC(=O)N[C@@H](Cc1ccccc1)C(=O)N1CCC[C@H]1C(=O)NCC(=O)O)[C@@H](C)O [AXGAQGPPGATGFPG] (H-A[Cit]GAQGPPGATGFPG-OH; N-terminus and C-terminus assumed) | DRB1*01:01 binding capacity, WT/cit ratio [1, 7]: 0.7; DRB1*04:01 binding capacity, WT/cit ratio [2, 7]: 1.0
16 | 28 | – | – | – | CC(C)C[C@H](NC(=O)CNC(=O)[C@H](CCCNC(=N)N)NC(=O)[C@@H](N)CCC(=O)O)C(=O)N[C@@H](CCCCN)C(=O)NCC(=O)N[C@@H](Cc1c[nH]cn1)C(=O)N[C@@H](CCCNC(N)=O)C(=O)NCC(=O)N[C@@H](Cc1ccccc1)C(=O)N[C@H](C(=O)NCC(=O)N[C@@H](CC(C)C)C(=O)N[C@@H](CCC(N)=O)C(=O)NCC(=O)O)[C@@H](C)O [ERGLKGHXGFTGLQG] (H-ERGLKGH[Cit]GFTGLQG-OH) | –
